{"source": "patent US20070053866A1", "about": "“IN-CAN AND DRY COATING ANTIMICROBIAL COMPOSITIONS HAVING HYDROXY ANALOGS OF METHIONINE AND DERIVATIVES” (NOVUS INTERNATIONAL INC., priority 2005, published 2007)", "key": {"[1]": {"tested_on": "Penicillium and Aspergilus sp.", "experiment": "Dry-film alkyd paint mold and mildew resistance in environmental chamber (ASTM D 3273-94, ASTM D 3274-95)", "type": "cell-based", "details": "scale of 1 to 10, 10 being totally free of growth; for ASTM RATING Mean: One month in the environmental chamber, added at 1% to alkyd paint; for ASTM Rating: Three months of continuous alkyd paint testing in the environmental chamber", "method": "Accelerated testing of biocides in paints is conducted using environmental chambers maintained at constant high humidity (85-88% relative humidity) and temperature (30-33° C.). The chamber was primed with spores of Penicillium and Aspergilus sp. to accelerate the formation of fungal organisms. Wood panels are coated with the experimental paints and placed inside the chamber for a period of 4-12 weeks. The relative resistance of the paint to the mold and mildew inside the chamber was evaluated subjectively from a scale of 1 to 10, with 10 being totally free of growth. This test is described in more detail in ASTM D 3273-94 and ASTM D 3274-95.\nPaint preservatives listed in table 5 below were added at 1% to alkyd paint formulations. HMTBA-Zn is a zinc metal chelate as described above; HMTBA-Cu is a copper metal chelate as described above; HMTBA-Mn is a manganese metal chelate as described above; BIOX-S is 6-ethoxy-1,2-dihydro-2,2,4-trimethylquinoline; BIOX-A is 88 wt. % HMTBA; BIOX-ASL contains 35 wt. % of 2-hydroxy-4-methylthio butanoic acid (88%), 45 wt. % of formic acid, 10 wt. % phosphoric acid and 10 wt. % lactic acid; and BIOX-EZ/7030 contains 70 wt. % of 6-ethoxy-1,2-dihydro-2,2,4-trimethylquinoline and 30 wt. % of HMTBA-Zn metal chelate. Troy663 is a positive control."}, "[2]": {"tested_on": "Pseudomonas aeruginosa ATCC 10145 and Enterobacter aerogenes ATCC 13048", "experiment": "In-can paint preservation: bacterial resistance rating of inoculated water borne paint", "type": "cell-based", "set-up": "key: 0: no bacterial recovery; trace of contamination (1 to 9 colonies); 2: light contamination (10 to 99 colonies); 3: moderate contamination (>100 distinct colonies); 4: heavy contamination (continuous smear of growth)", "method": "Paint preservatives listed in the tables below were added at the listed concentrations to water borne paint formulations. BIOX-ASL contains 35 wt. % of 2-hydroxy-4-methylthio butanoic acid (88%), 45 wt. % of formic acid, 10 wt. % phosphoric acid and 10 wt. % lactic acid; BIOX-AWD contains 40 wt. % of 2-hydroxy-4-methylthio butanoic acid, 40 wt. % of formic acid and 20 wt. % propionic acid; BIOX-ASDA contains 36.4 wt. % of calcium bis(2-hydroxy-4-methylthiobuanoate), 41.9 wt. % of fumaric acid, 20 wt. % of benzoic acid, 0.9 wt. % flow aid and 0.73 wt. % other additives; HTA and BIOBAN BP30 are commercially available; BIOX-Z is a HMTBA-Zn metal chelate, and BIOX-C is a HMTBA-Cu metal chelate.\nThe paints were inoculated with Pseudomonas aeruginosaATCC 10145 and Enterobacter aerogenes ATCC 13048 at a level of 0.1% inoculum, and paints were then sampled during the next seven days to determine the number of bacterial colonies surviving in the paint. The efficacy of the added antimicrobial agents were given a numeric rating based on the following system: (0) for no bacterial recovery, (1) for trace of contamination (1 to 9 colonies), (2) for light contamination (10 to 99 colonies), (3) for moderate contamination (>100 distinct colonies) and (4) for heavy contamination (continuous smear of growth).\nThe paints were then inoculated at a level of 1.0% inoculum and were again sampled during the next seven days to determine the number of bacterial colonies surviving in the paint. These ratings were also plotted versus day after inoculation for each concentration of BIOX-ASL, BIOX-AWD, BIOX-ASDA, and BIOX-C, and are presented in FIGS. 1-4. The minimum inhibitory concentration (MIC) of each BIOX biocide was much lower after one week than those of commercially available products, as shown in FIG. 5."}, "[3]": {"details": "Table 1, week 1, 0.1% inoculum, 5 ppm in water borne paint"}, "[4]": {"details": "Table 1, week 1, 0.1% inoculum, 25 ppm in water borne paint"}, "[5]": {"details": "Table 2, week 2, 1.0% inoculum, 5 ppm in water borne paint"}, "[6]": {"details": "Table 2, week 2, 1.0% inoculum, 25 ppm in water borne paint"}, "[7]": {"details": "Table 3, Week 1: 0.1% Inoculum, sample at 1.0%"}, "[8]": {"details": "Table 3, Week 2: 1.0% Inoculum, sample at 1.0%"}, "[9]": {"details": "Table 4, Week 1: 0.1% Inoculum, sample at 1.0% (Bioban BP30: concentration not given)"}, "[10]": {"details": "Table 4, Week 2: 1.0% Inoculum, sample at 1.0%"}}}
{"smiles": "CSCCC(O)C(=O)O", "note": "(stereo not drawn) [BIOX-A, 2-hydroxy-4(methylthio)butanoic acid]", "values": [{"measurement": "ASTM RATING Mean", "setting": "[1]", "result": 9.2}]}
{"smiles": "CSCCC(O)C(=O)[O-].CSCCC(O)C(=O)[O-].[Cu+2]", "note": "(stereo not drawn) [BIOX-C, copper 2-hydroxy-4-methylthiobutanoate chelate]", "values": [{"measurement": "Bacteria Resistance Rating, Before Inoculation", "setting": "[2]; [3]", "result": 0}, {"measurement": "Bacteria Resistance Rating, Day 1", "setting": "[2]; [3]", "result": 0}, {"measurement": "Bacteria Resistance Rating, Day 2", "setting": "[2]; [3]", "result": 0}, {"measurement": "Bacteria Resistance Rating, Day 5", "setting": "[2]; [3]", "result": 0}, {"measurement": "Bacteria Resistance Rating, Day 7", "setting": "[2]; [3]", "result": 0}, {"measurement": "Bacteria Resistance Rating, Initial Inoculation", "setting": "[2]; [3]", "result": 4}, {"measurement": "Bacteria Resistance Rating, Before Inoculation", "setting": "[2]; [4]", "result": 0}, {"measurement": "Bacteria Resistance Rating, Day 1", "setting": "[2]; [4]", "result": 0}, {"measurement": "Bacteria Resistance Rating, Day 2", "setting": "[2]; [4]", "result": 0}, {"measurement": "Bacteria Resistance Rating, Day 5", "setting": "[2]; [4]", "result": 0}, {"measurement": "Bacteria Resistance Rating, Day 7", "setting": "[2]; [4]", "result": 0}, {"measurement": "Bacteria Resistance Rating, Initial Inoculation", "setting": "[2]; [4]", "result": 4}, {"measurement": "Bacteria Resistance Rating, Before Inoculation", "setting": "[2]; [5]", "result": 0}, {"measurement": "Bacteria Resistance Rating, Day 1", "setting": "[2]; [5]", "result": "3 (moderate contamination (>100 distinct colonies))"}, {"measurement": "Bacteria Resistance Rating, Day 2", "setting": "[2]; [5]", "result": "1 (trace of contamination (1 to 9 colonies))"}, {"measurement": "Bacteria Resistance Rating, Day 5", "setting": "[2]; [5]", "result": 0}, {"measurement": "Bacteria Resistance Rating, Day 7", "setting": "[2]; [5]", "result": 0}, {"measurement": "Bacteria Resistance Rating, Initial Inoculation", "setting": "[2]; [5]", "result": 4}, {"measurement": "Bacteria Resistance Rating, Before Inoculation", "setting": "[2]; [6]", "result": 0}, {"measurement": "Bacteria Resistance Rating, Day 1", "setting": "[2]; [6]", "result": "3 (moderate contamination (>100 distinct colonies))"}, {"measurement": "Bacteria Resistance Rating, Day 2", "setting": "[2]; [6]", "result": 0}, {"measurement": "Bacteria Resistance Rating, Day 5", "setting": "[2]; [6]", "result": 0}, {"measurement": "Bacteria Resistance Rating, Day 7", "setting": "[2]; [6]", "result": 0}, {"measurement": "Bacteria Resistance Rating, Initial Inoculation", "setting": "[2]; [6]", "result": 4}, {"measurement": "Bacterial Resistance Rating, Day 1", "setting": "[2]; [7]", "result": "2 (light contamination (10 to 99 colonies))"}, {"measurement": "Bacterial Resistance Rating, Day 2", "setting": "[2]; [7]", "result": 0}, {"measurement": "Bacterial Resistance Rating, Day 5", "setting": "[2]; [7]", "result": 0}, {"measurement": "Bacterial Resistance Rating, Day 7", "setting": "[2]; [7]", "result": 0}, {"measurement": "Bacterial Resistance Rating, Initial", "setting": "[2]; [7]", "result": 4}, {"measurement": "Bacterial Resistance Rating, Day 1", "setting": "[2]; [8]", "result": 0}, {"measurement": "Bacterial Resistance Rating, Day 2", "setting": "[2]; [8]", "result": 0}, {"measurement": "Bacterial Resistance Rating, Day 5", "setting": "[2]; [8]", "result": 0}, {"measurement": "Bacterial Resistance Rating, Day 7", "setting": "[2]; [8]", "result": 0}, {"measurement": "Bacterial Resistance Rating, Initial", "setting": "[2]; [8]", "result": 4}, {"measurement": "Bacterial Resistance Rating, Day 1", "setting": "[2]; [9]", "result": 0}, {"measurement": "Bacterial Resistance Rating, Day 2", "setting": "[2]; [9]", "result": 0}, {"measurement": "Bacterial Resistance Rating, Day 5", "setting": "[2]; [9]", "result": 0}, {"measurement": "Bacterial Resistance Rating, Day 7", "setting": "[2]; [9]", "result": 0}, {"measurement": "Bacterial Resistance Rating, Initial", "setting": "[2]; [9]", "result": 4}, {"measurement": "Bacterial Resistance Rating, Day 1", "setting": "[2]; [10]", "result": 0}, {"measurement": "Bacterial Resistance Rating, Day 2", "setting": "[2]; [10]", "result": 0}, {"measurement": "Bacterial Resistance Rating, Day 5", "setting": "[2]; [10]", "result": 0}, {"measurement": "Bacterial Resistance Rating, Initial", "setting": "[2]; [10]", "result": 4}, {"measurement": "ASTM RATING Mean", "setting": "[1]", "result": 9.3}, {"measurement": "ASTM Rating", "setting": "[1]", "result": "9.0 ± 0.6"}]}
{"smiles": "CCOc1ccc2c(c1)C(C)=CC(C)(C)N2", "note": "[BIOX-S, 6-ethoxy-1,2-dihydro-2,2,4-trimethylquinoline]", "values": [{"measurement": "ASTM RATING Mean", "setting": "[1]", "result": 9.2}]}
{"smiles": "CSCCC(O)C(=O)[O-].CSCCC(O)C(=O)[O-].[Zn+2]", "note": "(stereo not drawn) [BIOX-Z]", "values": [{"measurement": "Bacterial Resistance Rating, Day 1", "setting": "[2]; [7]", "result": 0}, {"measurement": "Bacterial Resistance Rating, Day 2", "setting": "[2]; [7]", "result": 0}, {"measurement": "Bacterial Resistance Rating, Day 5", "setting": "[2]; [7]", "result": 0}, {"measurement": "Bacterial Resistance Rating, Day 7", "setting": "[2]; [7]", "result": 0}, {"measurement": "Bacterial Resistance Rating, Initial", "setting": "[2]; [7]", "result": 4}, {"measurement": "Bacterial Resistance Rating, Day 1", "setting": "[2]; [8]", "result": "1 (trace of contamination (1 to 9 colonies))"}, {"measurement": "Bacterial Resistance Rating, Day 2", "setting": "[2]; [8]", "result": 0}, {"measurement": "Bacterial Resistance Rating, Day 5", "setting": "[2]; [8]", "result": 0}, {"measurement": "Bacterial Resistance Rating, Day 7", "setting": "[2]; [8]", "result": 0}, {"measurement": "Bacterial Resistance Rating, Initial", "setting": "[2]; [8]", "result": 4}, {"measurement": "Bacterial Resistance Rating, Day 1", "setting": "[2]; [9]", "result": "1 (trace of contamination (1 to 9 colonies))"}, {"measurement": "Bacterial Resistance Rating, Day 2", "setting": "[2]; [9]", "result": 0}, {"measurement": "Bacterial Resistance Rating, Day 5", "setting": "[2]; [9]", "result": 0}, {"measurement": "Bacterial Resistance Rating, Day 7", "setting": "[2]; [9]", "result": 0}, {"measurement": "Bacterial Resistance Rating, Initial", "setting": "[2]; [9]", "result": 4}, {"measurement": "Bacterial Resistance Rating, Day 1", "setting": "[2]; [10]", "result": "1 (trace of contamination (1 to 9 colonies))"}, {"measurement": "Bacterial Resistance Rating, Day 2", "setting": "[2]; [10]", "result": 0}, {"measurement": "Bacterial Resistance Rating, Day 5", "setting": "[2]; [10]", "result": 0}, {"measurement": "Bacterial Resistance Rating, Initial", "setting": "[2]; [10]", "result": 4}, {"measurement": "ASTM RATING Mean", "setting": "[1]", "result": 8.7}]}
{"smiles": "[Cu+2].[O-]n1ccccc1=S.[O-]n1ccccc1=S", "note": "[COPPER OMADINE, reference compound]", "values": [{"measurement": "ASTM Rating", "setting": "[1]", "result": "9.2 ± 0.4"}]}
{"smiles": "CSCCC(O)C(=O)[O-].CSCCC(O)C(=O)[O-].[Mn+2]", "note": "(stereo not drawn) [HMTBA-Mn]", "values": [{"measurement": "ASTM RATING Mean", "setting": "[1]", "result": 7.8}]}
{"smiles": "C1N2CN3CN1CN(C2)C3", "note": "[HTA, reference compound]", "values": [{"measurement": "Bacterial Resistance Rating, Day 1", "setting": "[2]; [7]", "result": 4}, {"measurement": "Bacterial Resistance Rating, Day 2", "setting": "[2]; [7]", "result": 4}, {"measurement": "Bacterial Resistance Rating, Day 5", "setting": "[2]; [7]", "result": 4}, {"measurement": "Bacterial Resistance Rating, Day 7", "setting": "[2]; [7]", "result": 4}, {"measurement": "Bacterial Resistance Rating, Initial", "setting": "[2]; [7]", "result": 4}]}
{"smiles": "c1cc[n+]2c(c1)[S][Zn-2]1([O]2)[O][n+]2ccccc2[S]1", "note": "[ZINC-OMADINE, reference compound]", "values": [{"measurement": "ASTM Rating", "setting": "[1]", "result": "8.3 ± 0.8"}]}
